Source: publication PMC10825183 (Nature Communications, 2024)
“And” between values parts separate entries of the source, which are not always exact repeats. Equal values may be shown once. Read-outs that look alike come from different tables or passages of the source.

Assays:
[1] = molecular target: T1, rbHCN4 full-length (FL) (Oryctolagus cuniculus, UniProt Q9TV66); experiment: Whole-cell patch clamp in HEK293T cells, HCN4 full length; type: cell-based, rabbit
T1 construct: The cDNA encoding the full-length rabbit HCN4 was previously cloned in pCI (Promega) mammalian expression vector; expressed in transfected cells; host or cells: HEK293T
T1 sequence (Q9TV66 1-1175): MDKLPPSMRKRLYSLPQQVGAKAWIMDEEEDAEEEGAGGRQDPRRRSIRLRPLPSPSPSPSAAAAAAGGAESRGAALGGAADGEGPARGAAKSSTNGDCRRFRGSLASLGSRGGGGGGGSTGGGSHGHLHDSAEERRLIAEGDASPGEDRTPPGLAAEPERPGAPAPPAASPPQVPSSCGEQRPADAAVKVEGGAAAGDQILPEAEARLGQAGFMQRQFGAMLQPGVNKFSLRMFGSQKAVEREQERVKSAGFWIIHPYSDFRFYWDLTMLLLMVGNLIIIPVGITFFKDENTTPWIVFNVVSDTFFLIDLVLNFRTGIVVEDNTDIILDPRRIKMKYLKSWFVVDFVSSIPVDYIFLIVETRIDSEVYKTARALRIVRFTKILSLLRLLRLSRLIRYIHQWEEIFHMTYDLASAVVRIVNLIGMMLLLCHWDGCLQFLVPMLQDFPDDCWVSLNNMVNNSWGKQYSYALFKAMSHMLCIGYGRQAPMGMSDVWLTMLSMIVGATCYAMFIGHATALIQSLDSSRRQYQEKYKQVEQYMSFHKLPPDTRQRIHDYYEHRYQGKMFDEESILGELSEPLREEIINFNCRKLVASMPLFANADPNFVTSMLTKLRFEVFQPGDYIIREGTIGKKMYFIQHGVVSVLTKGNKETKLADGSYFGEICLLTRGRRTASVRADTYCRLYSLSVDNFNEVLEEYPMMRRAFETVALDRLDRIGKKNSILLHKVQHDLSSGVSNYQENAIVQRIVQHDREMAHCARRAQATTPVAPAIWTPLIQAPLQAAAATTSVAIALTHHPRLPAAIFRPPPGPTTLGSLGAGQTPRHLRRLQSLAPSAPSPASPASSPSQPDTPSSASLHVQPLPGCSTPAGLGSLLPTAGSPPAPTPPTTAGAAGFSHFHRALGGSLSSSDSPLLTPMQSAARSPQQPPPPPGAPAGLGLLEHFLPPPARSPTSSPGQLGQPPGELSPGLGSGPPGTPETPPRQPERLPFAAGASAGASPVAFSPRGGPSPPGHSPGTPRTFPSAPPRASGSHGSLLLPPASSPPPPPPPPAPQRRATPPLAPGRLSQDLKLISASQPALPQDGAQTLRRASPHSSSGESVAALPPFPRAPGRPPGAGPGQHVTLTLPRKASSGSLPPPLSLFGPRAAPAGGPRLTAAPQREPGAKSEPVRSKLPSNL

[2] = molecular target: rbHCN4 ΔDE’ (1-723) (Oryctolagus cuniculus, UniProt Q9TV66)
[3] = molecular target: rbHCN4 ΔDE (1-718) (Oryctolagus cuniculus, UniProt Q9TV66)
[4] = molecular target: rbHCN4 D750A (Oryctolagus cuniculus, UniProt Q9TV66, D750A)
[5] = molecular target: hHCN2 CNBD D698A (Homo sapiens, UniProt Q9UL51, D698A); conditions: cAMP titrant
[6] = molecular target: T2, hHCN2 CNBD R662A (Homo sapiens, UniProt Q9UL51, R662A); conditions: cAMP titrant
[7] = test system: HCN4; conditions: cited from earlier work
[8] = test system: full-length HCN2 with a C-linker and CNBD from HCN4; conditions: ref Xu et al, JBC, 2010; cited from earlier work
[9] = molecular target: isolated C-linker and CNBD; conditions: ref Chow et al (2012), cited from earlier work
[10] = test system: native If current in sinoatrial node myocytes; conditions: read-out: affinity value for cAMP; ref DiFrancesco and Tortora, Nature, 1991; cited from earlier work
[11] = molecular target: T2, hHCN2 CNBD R662A; experiment: biochemical
[12] = molecular target: T3, human HCN2 CNBD ΔC-term (Homo sapiens, UniProt Q9UL51); experiment: Isothermal titration calorimetry (ITC), CNBD ΔC-term; conditions: mean ± SEM, n = 3
T3 sequence (Q9UL51 521-706): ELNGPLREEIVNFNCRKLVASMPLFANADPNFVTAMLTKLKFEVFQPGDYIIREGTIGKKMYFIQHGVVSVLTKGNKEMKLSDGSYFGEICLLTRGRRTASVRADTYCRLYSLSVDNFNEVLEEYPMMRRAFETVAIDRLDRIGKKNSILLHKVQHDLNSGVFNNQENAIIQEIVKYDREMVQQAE

[13] = 5 µM cAMP in pipette, mean ± SEM
[14] = Hill fit of shift in V1/2 vs cAMP concentration

Chain of rbHCN4 D750A (Q9TV66 whole entry D750A): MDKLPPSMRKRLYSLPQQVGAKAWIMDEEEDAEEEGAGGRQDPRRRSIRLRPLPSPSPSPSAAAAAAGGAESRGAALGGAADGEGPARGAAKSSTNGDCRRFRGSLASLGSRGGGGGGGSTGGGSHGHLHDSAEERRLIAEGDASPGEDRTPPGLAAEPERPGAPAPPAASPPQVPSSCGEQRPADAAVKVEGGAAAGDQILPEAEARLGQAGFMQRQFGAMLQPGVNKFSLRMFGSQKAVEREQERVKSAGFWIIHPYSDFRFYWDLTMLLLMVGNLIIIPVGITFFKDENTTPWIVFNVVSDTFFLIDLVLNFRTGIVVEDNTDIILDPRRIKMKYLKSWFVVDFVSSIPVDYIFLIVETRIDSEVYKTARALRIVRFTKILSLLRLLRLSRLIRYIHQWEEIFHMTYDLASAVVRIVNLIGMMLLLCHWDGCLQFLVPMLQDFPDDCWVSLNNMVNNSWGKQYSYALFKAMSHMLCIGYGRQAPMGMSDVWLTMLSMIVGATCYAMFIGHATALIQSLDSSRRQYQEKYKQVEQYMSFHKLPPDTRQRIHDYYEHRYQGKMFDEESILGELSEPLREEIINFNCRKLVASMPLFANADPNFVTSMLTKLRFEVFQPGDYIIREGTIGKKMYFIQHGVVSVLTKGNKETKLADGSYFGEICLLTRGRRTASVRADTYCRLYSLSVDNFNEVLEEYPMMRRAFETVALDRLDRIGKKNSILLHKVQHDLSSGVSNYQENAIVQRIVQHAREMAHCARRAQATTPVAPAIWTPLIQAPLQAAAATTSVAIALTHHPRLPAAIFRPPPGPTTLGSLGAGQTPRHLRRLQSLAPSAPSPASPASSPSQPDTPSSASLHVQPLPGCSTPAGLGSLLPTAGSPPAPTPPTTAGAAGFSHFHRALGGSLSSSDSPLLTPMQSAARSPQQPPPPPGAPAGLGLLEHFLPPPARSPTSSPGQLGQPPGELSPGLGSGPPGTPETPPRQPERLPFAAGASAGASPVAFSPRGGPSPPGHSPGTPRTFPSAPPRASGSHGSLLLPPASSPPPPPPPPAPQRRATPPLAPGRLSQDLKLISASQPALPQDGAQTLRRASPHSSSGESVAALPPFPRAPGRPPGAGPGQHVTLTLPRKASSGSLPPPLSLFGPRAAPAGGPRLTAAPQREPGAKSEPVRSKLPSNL
T2 sequence (Q9UL51 521-706 R662A): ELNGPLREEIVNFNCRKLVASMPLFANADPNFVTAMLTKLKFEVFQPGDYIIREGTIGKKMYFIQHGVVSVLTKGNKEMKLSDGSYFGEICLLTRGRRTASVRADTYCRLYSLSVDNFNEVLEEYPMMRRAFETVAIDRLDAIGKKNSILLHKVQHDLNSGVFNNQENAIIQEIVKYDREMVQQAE
Chain of hHCN2 CNBD D698A (Q9UL51 521-706 D698A): as the sequence (Q9UL51 521-706 R662A) above, with A142R, D178A counted along it

In the case of Nc1ncnc2c1ncn2[C@@H]1O[C@@H]2COP(=O)(O)O[C@H]2[C@H]1O [cAMP, Adenosine 3′,5′-cyclic monophosphate], the “V1/2 with cAMP” value ([1]; 1 µM cAMP in pipette, mean ± SEM) is reported as -89.9 ± 1.6 mV, the “k (inverse slope factor) with cAMP” value ([1]; 1 µM cAMP, mean ± SEM) is reported as 11.7 ± 1 mV and the “V1/2 with cAMP” value [1, 13] is reported as -87.5 ± 0.7 mV. The “k (inverse slope factor) with cAMP” value ([1]; 5 µM cAMP, mean ± SEM) was 10.6 ± 0.4 mV, the “V1/2 + cAMP” value ([1]; 15 µM cAMP in pipette, mean ± SEM) was -79.3 ± 0.9 mV and the “k + cAMP” value ([1]; 15 µM cAMP, mean ± SEM) was 10.2 ± 1 mV. The “Hill coefficient (nH)” value [1, 14] was 0.9, the “V1/2 with cAMP” value [2, 13] was -95.5 ± 0.8 mV and the “k (inverse slope factor) with cAMP” value ([2]; 5 µM cAMP, mean ± SEM) was 8.4 ± 0.1 mV. The “Hill coefficient (nH)” value [2, 14] was 1, the “V1/2 with cAMP” value [3, 13] was -102.4± 0.6 mV and the “k (inverse slope factor) with cAMP” value ([3]; 5 µM cAMP, mean ± SEM) was 7.6 ± 0.3 mV. For the same compound, the “Hill coefficient (nH)” value [3, 14] was 1, the “V1/2 with cAMP” value [4, 13] was -96 ±1.7 mV and the “k (inverse slope factor) with cAMP” value ([4]; 5 µM cAMP, mean ± SEM) was 9 ± 0.5 mV. The “Hill coefficient (nH)” value [4, 14] was 0.8, the “stoichiometry (N)” value ([5]; mean ± SEM, n = 3) was 0.8 ± 0.1 and the “N, representative sample (Fig. 4d)” value ([5]; single ITC experiment) was 0.7. For the same compound, the “stoichiometry (N)” value ([6]; mean ± SEM, n = 3) was 0.9 ± 0.1, the “N, representative sample (Fig. 4d)” value ([6]; single ITC experiment) was 0.7 and the EC50 ([7]; ref Baruscotti et al, 2017) was 1.67 µM. For the same compound, the EC50 ([7]; ref Milanesi et al, 2006) was 1.53 µM, the EC50 ([7]; ref Moller et al 2014) was 0.82 µM and the EC50 [8] was 0.24 µM. For the same compound, the Kd ([9]; read-out: binding affinity, higher affinity, protein at ~100uM or greater, predominantly tetramers) was 0.12 µM, the Kd ([9]; read-out: binding affinity, lower affinity, protein at ~100uM or greater, predominantly tetramers) was 1.5 µM and the Kd ([9]; read-out: binding affinity, single lower affinity, first two helices of the C-linker removed, monomeric protein) was roughly 1.8 µM. The Kd ([9]; read-out: binding affinity, single lower affinity, lower protein concentrations, tetramers less frequent) was roughly 1.5 µM, the EC50 [10] was 0.2 µM and the Kd ([11]; KD of individual experiments (source data Fig. 4e), cAMP titrant, unit inferred) was 1.08 µM and 0.98 µM and 1.1 µM. The Kd ([11]; KD, cAMP titrated into 20 µM CNBD, 25 °C, mean ± SEM, n = 3) was 1 ± 0.03 µM, the Kd ([12]; KD, cAMP titrated into 20 µM CNBD, 25 °C) was 0.3 ± 0.01 µM and the “stoichiometry (N)” value ([12]; cAMP titrant) was 0.4 ± 0.1.
